Where a SMILES comes first, the peptide text is derived from it. Bridges are numbered along the chain shown (N, C = ends).
Tests used:
mNaV1.6 = mNaV1.6 (Mus musculus, UniProt Q9WTU3); assay: Two-electrode voltage-clamp on Xenopus laevis oocytes expressing NaV1.6; conditions: for inhibition at 100 µM: read-out: Maximum % inhibition NaV1.6, peptide at 100 μM
rNaV1.2 = rNaV1.2 (Rattus norvegicus, UniProt P04775); assay: Two-electrode voltage-clamp on Xenopus laevis oocytes expressing NaV1.2; conditions: for inhibition at 100 µM: read-out: Maximum % inhibition NaV1.2, peptide at 100 μM
rNaV1.8 = rNaV1.8 (Rattus norvegicus, UniProt Q62968); assay: Two-electrode voltage-clamp on Xenopus laevis oocytes expressing NaV1.8; conditions: for inhibition at 100 µM: read-out: Maximum % inhibition NaV1.8
rNaV1.4 = rNaV1.4 (Rattus norvegicus, UniProt P15390); assay: Two-electrode voltage-clamp on Xenopus laevis oocytes expressing NaV1.4; conditions: for inhibition at 100 µM: read-out: Maximum % inhibition NaV1.4, peptide at 100 μM; for Maximum % inhibition NaV1.4: peptide at 100 μM, 100 µM
hNaV1.5 = hNaV1.5 (Homo sapiens, UniProt Q14524); assay: Two-electrode voltage-clamp on Xenopus laevis oocytes expressing NaV1.5; conditions: for inhibition at 100 µM: read-out: Maximum % inhibition NaV1.5

rNaV1.8, sequence (Q62968 whole entry): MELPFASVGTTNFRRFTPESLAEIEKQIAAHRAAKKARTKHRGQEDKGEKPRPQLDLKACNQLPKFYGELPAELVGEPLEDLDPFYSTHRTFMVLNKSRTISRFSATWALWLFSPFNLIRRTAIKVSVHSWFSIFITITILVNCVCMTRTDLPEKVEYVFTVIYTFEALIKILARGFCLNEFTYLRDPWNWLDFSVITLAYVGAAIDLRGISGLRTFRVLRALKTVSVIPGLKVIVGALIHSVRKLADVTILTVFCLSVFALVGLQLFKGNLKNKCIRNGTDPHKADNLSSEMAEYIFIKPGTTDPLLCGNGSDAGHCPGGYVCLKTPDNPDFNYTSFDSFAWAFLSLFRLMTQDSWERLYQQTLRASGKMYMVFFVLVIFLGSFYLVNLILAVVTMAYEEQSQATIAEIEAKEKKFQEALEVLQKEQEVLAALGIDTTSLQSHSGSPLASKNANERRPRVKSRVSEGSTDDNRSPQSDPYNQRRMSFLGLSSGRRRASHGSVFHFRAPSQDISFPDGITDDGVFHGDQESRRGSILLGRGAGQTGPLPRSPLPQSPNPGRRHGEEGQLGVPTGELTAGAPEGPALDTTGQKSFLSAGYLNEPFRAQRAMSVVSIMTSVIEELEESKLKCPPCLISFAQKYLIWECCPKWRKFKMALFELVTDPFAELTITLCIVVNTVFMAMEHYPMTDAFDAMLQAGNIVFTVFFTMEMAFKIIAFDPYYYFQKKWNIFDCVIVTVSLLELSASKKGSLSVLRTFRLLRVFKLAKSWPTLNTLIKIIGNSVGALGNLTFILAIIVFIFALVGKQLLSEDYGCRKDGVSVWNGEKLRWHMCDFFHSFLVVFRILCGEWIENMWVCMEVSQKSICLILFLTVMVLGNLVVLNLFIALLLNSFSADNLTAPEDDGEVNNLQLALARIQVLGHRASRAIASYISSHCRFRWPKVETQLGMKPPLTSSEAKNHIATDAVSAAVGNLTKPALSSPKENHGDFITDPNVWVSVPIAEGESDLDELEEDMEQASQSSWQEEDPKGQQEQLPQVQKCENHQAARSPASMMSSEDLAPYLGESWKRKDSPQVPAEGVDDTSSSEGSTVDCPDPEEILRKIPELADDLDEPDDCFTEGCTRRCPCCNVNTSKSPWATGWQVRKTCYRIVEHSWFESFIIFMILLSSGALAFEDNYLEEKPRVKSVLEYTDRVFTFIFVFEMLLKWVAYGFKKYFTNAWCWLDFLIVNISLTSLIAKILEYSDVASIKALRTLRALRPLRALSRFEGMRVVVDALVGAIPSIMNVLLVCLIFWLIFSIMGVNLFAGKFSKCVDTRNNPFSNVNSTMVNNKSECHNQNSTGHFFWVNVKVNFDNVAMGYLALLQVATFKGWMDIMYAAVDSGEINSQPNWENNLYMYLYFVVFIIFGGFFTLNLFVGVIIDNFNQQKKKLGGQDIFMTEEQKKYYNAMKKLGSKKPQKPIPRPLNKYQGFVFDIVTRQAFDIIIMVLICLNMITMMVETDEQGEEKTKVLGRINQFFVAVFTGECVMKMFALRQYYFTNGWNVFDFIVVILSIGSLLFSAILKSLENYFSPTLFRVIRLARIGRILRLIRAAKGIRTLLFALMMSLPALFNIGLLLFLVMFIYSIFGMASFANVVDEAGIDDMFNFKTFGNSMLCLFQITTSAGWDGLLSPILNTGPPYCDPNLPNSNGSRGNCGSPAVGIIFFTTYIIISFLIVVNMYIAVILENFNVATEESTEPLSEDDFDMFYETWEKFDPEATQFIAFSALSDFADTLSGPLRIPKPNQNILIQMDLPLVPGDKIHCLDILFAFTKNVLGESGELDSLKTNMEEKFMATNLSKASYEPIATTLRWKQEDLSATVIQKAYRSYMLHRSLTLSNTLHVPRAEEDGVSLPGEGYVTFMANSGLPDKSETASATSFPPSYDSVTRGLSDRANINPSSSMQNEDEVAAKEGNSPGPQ
rNaV1.2, sequence (P04775 whole entry): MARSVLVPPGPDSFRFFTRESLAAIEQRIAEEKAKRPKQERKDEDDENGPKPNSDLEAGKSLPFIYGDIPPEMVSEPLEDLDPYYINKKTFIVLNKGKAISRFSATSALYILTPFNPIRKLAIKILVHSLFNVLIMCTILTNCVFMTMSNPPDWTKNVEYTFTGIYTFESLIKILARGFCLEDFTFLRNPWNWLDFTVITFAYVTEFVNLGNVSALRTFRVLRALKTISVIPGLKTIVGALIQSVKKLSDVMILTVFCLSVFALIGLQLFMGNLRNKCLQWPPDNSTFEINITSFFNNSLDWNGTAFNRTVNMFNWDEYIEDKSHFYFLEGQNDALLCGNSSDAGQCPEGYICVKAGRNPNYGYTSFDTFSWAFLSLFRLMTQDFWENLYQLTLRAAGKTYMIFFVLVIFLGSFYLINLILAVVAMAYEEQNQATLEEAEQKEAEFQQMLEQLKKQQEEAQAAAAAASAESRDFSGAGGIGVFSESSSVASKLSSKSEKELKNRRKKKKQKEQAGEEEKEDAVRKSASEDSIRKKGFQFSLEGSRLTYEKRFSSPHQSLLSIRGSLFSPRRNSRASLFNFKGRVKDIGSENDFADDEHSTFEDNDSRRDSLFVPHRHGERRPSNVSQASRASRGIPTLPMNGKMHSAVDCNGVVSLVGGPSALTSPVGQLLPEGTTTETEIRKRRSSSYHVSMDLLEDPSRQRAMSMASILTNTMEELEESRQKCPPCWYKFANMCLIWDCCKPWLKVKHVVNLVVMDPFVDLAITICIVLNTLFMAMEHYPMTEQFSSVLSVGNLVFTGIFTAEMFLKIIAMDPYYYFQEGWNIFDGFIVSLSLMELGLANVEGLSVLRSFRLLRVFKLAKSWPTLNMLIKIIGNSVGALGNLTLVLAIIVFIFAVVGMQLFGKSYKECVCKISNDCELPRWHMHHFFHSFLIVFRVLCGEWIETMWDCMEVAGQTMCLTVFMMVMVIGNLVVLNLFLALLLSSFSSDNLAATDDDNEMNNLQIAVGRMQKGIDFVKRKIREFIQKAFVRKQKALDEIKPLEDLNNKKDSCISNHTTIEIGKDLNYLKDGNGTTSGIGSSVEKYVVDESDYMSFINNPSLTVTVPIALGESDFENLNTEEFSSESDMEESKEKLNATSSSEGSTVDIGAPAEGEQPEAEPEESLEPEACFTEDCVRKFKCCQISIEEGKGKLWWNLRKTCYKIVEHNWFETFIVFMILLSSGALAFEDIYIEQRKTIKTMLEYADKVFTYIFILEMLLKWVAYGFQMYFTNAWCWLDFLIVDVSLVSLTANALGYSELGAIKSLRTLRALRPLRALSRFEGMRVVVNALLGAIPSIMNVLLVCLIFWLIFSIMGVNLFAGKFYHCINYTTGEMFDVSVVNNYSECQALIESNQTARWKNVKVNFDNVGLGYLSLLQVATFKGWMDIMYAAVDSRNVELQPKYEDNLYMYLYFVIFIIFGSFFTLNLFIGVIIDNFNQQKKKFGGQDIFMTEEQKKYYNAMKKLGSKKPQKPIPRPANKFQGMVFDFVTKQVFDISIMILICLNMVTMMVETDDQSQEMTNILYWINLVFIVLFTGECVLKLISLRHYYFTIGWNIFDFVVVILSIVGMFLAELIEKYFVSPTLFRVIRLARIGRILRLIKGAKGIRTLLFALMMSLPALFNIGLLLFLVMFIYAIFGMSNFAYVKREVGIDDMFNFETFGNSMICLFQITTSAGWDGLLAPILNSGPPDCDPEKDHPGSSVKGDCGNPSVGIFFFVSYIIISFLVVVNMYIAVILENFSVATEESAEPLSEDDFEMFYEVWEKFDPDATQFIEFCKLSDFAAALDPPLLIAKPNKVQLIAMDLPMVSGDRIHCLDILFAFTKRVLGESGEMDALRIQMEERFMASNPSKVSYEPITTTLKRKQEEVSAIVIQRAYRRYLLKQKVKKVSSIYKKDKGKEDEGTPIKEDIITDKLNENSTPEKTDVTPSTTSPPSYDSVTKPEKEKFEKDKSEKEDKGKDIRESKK
rNaV1.2, sequence (Q00954 19-218, further chain): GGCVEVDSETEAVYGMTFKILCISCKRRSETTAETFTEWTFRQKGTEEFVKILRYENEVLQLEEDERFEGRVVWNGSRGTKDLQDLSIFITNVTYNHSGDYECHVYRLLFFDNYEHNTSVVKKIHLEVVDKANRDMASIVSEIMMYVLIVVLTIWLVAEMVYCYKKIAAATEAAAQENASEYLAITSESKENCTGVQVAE

Structure (SMILES)	inhibition at 100 µM (mNaV1.6) [%]	inhibition at 100 µM (rNaV1.2) [%]	inhibition at 100 µM (rNaV1.8) [%]	inhibition at 100 µM (rNaV1.4) [%]	inhibition at 100 µM (hNaV1.5) [%]	IC50 (mNaV1.6) [nM]	IC50 (rNaV1.2) [nM]	IC50 (rNaV1.8) [nM]	IC50 (rNaV1.4) [nM]	IC50 (hNaV1.5) [nM]	Maximum % inhibition NaV1.2 (rNaV1.2; peptide at 100 μM, 100 µM) [%]	Maximum % inhibition NaV1.4 (rNaV1.4) [%]
CC(=O)N[C@H]1CSSC[C@@H](C(=O)O)NC(=O)[C@H](CCCNC(=N)N)NC(=O)[C@H](CC(N)=O)NC(=O)[C@H](Cc2c[nH]c3ccccc23)NC(=O)[C@H](CCCNC(=N)N)NC(=O)[C@H](C)NC(=O)[C@H](Cc2c[nH]c3ccccc23)NC(=O)[C@H](CCCNC(=N)N)NC(=O)[C@H](CCCNC(=N)N)NC1=O [PnCS1Ac, Ac-CRRWARWNRC] (Ac-CRRWARWNRC-OH; disulfide 1-10)	0	0	0	0	0							
CC(=O)N[C@H]1CSSC[C@@H](C(N)=O)NC(=O)[C@H](CCCNC(=N)N)NC(=O)[C@H](CC(N)=O)NC(=O)[C@H](Cc2c[nH]c3ccccc23)NC(=O)[C@H](CCCNC(=N)N)NC(=O)[C@H](C)NC(=O)[C@H](Cc2c[nH]c3ccccc23)NC(=O)[C@H](CCCNC(=N)N)NC(=O)[C@H](CCCNC(=N)N)NC1=O [PnCS1AcAm, Ac-CRRWARWNRC ^*] (Ac-CRRWARWNRC-NH2; disulfide 1-10)	0	0	0	0	0	> 100000	> 100000	> 100000	> 100000	> 100000		
C[C@@H]1NC(=O)[C@H](Cc2c[nH]c3ccccc23)NC(=O)[C@H](CCCNC(=N)N)NC(=O)[C@H](CCCNC(=N)N)NC(=O)[C@@H](N)CSSC[C@@H](C(=O)O)NC(=O)[C@H](CCCNC(=N)N)NC(=O)[C@H](CC(N)=O)NC(=O)[C@H](Cc2c[nH]c3ccccc23)NC(=O)[C@H](CCCNC(=N)N)NC1=O [PnCS1DeAm, CRRWARWNRC] (H-CRRWARWNRC-OH; disulfide 1-10)	24	34	0	43	10	> 100000	> 100000	> 100000	> 100000	> 100000		
N=C(N)NCCC[C@@H]1NC(=O)[C@H](CC(N)=O)NC(=O)[C@H](Cc2c[nH]c3ccccc23)NC(=O)[C@H](CCCNC(=N)N)NC(=O)[C@H](CCC(=O)O)NC(=O)[C@H](Cc2c[nH]c3ccccc23)NC(=O)[C@H](CCCNC(=N)N)NC(=O)[C@H](CCCNC(=N)N)NC(=O)[C@@H](N)CSSC[C@@H](C(N)=O)NC1=O [PnCS1[A5E], CRRWERWNRC ^*] (H-CRRWERWNRC-NH2; disulfide 1-10)	82	81	0	35	73	1800 ± 500	1400 ± 200	> 100000	> 100000	8800 ± 3700		
N=C(N)NCCC[C@@H]1NC(=O)[C@H](CC(N)=O)NC(=O)[C@H](Cc2c[nH]c3ccccc23)NC(=O)[C@H](CCCNC(=N)N)NC(=O)[C@H](CCCCN)NC(=O)[C@H](Cc2c[nH]c3ccccc23)NC(=O)[C@H](CCCNC(=N)N)NC(=O)[C@H](CCCNC(=N)N)NC(=O)[C@@H](N)CSSC[C@@H](C(N)=O)NC1=O [PnCS1[A5K], CRRWKRWNRC ^*] (H-CRRWKRWNRC-NH2; disulfide 1-10)	93	84	0	91	92	700 ± 300	1200 ± 400	> 100000	1900 ± 800	2100 ± 200		
C[C@@H]1NC(=O)[C@H](Cc2c[nH]c3ccccc23)NC(=O)[C@H](CCCNC(=N)N)NC(=O)[C@H](C)NC(=O)[C@H](Cc2c[nH]c3ccccc23)NC(=O)[C@H](CCCNC(=N)N)NC(=O)[C@H](CCCNC(=N)N)NC(=O)[C@@H](N)CSSC[C@@H](C(N)=O)NC(=O)[C@H](CCCNC(=N)N)NC1=O [PnCS1[N8A], CRRWARWARC ^*] (H-CRRWARWARC-NH2; disulfide 1-10)	89	> 95	0	94	92	800 ± 300	900 ± 300	> 100000	900 ± 400	2200 ± 700	96	
C[C@@H]1NC(=O)[C@H](Cc2c[nH]c3ccccc23)NC(=O)[C@H](CCCNC(=N)N)NC(=O)[C@H](CCCNC(=N)N)NC(=O)[C@@H](N)CSSC[C@@H](C(N)=O)NC(=O)[C@H](CCCNC(=N)N)NC(=O)[C@H](CCC(=O)O)NC(=O)[C@H](Cc2c[nH]c3ccccc23)NC(=O)[C@H](CCCNC(=N)N)NC1=O [PnCS1[N8E], CRRWARWERC ^*] (H-CRRWARWERC-NH2; disulfide 1-10)	27	47	0	53	44	> 100000	> 100000	> 100000	> 100000	> 100000		
C[C@@H]1NC(=O)[C@H](Cc2c[nH]c3ccccc23)NC(=O)[C@H](CCCNC(=N)N)NC(=O)[C@H](CCCNC(=N)N)NC(=O)[C@@H](N)CSSC[C@@H](C(N)=O)NC(=O)[C@H](CCCNC(=N)N)NC(=O)[C@H](CCCCN)NC(=O)[C@H](Cc2c[nH]c3ccccc23)NC(=O)[C@H](CCCNC(=N)N)NC1=O [PnCS1[N8K], CRRWARWKRC ^*] (H-CRRWARWKRC-NH2; disulfide 1-10)	92	81	0	> 95	86	500 ± 200	4400 ± 800	> 100000	900 ± 300	2800 ± 500		96
C[C@@H]1NC(=O)[C@H](Cc2c[nH]c3ccccc23)NC(=O)[C@H](CCCNC(=N)N)NC(=O)[C@H](C)NC(=O)[C@@H](N)CSSC[C@@H](C(N)=O)NC(=O)[C@H](CCCNC(=N)N)NC(=O)[C@H](CC(N)=O)NC(=O)[C@H](Cc2c[nH]c3ccccc23)NC(=O)[C@H](CCCNC(=N)N)NC1=O [PnCS1[R2A], CARWARWNRC ^*] (H-CARWARWNRC-NH2; disulfide 1-10)	71	84	0	> 95	68	1600 ± 500	2900 ± 500	> 100000	1400 ± 400	1700 ± 700		96
C[C@@H]1NC(=O)[C@H](Cc2c[nH]c3ccccc23)NC(=O)[C@H](CCCNC(=N)N)NC(=O)[C@H](CCC(=O)O)NC(=O)[C@@H](N)CSSC[C@@H](C(N)=O)NC(=O)[C@H](CCCNC(=N)N)NC(=O)[C@H](CC(N)=O)NC(=O)[C@H](Cc2c[nH]c3ccccc23)NC(=O)[C@H](CCCNC(=N)N)NC1=O [PnCS1[R2E], CERWARWNRC ^*] (H-CERWARWNRC-NH2; disulfide 1-10)	5	41	0	11	27	> 100000	> 100000	> 100000	> 100000	> 100000		

Source: article PMC9116130 (Biochemical pharmacology, 2020)
